For 4 compounds, IC50 results are on record in US8338431B2, “Phosphodiesterase inhibitors” (Leo Pharma A/S, priority 2007, dated 2012).

Assay [1] deals with Human recombinant PDE4 (Genbank accession no NM—006203) (Homo sapiens, UniProt Q08499). Briefly: PDE4 Assay (SPA, cleavage of cAMP). Conditions: human recombinant PDE4, 1 hour incubation, cAMP 1×10^-5M, test compound up to 10 μM; read-out: IC50 (PDE4). The assay is classed as biochemical. The method, then: Human recombinant PDE4 (Genbank accession no NM_006203) was incubated for 1 hour, with the test compound at concentrations up to 10 μM, with cAMP (1×10^-5M), and with a low amount (0.021 MBq) of radioactively labelled cAMP. At the end of the incubation, the cleavage of the substrate was evaluated by the binding of the AMP product to SPA beads, which generate […] when bound to the radioactive tracer. The AMP product inhibited the binding of the radioactive tracer to the beads, and the luminescent signal was competed. The results were calculated as the molar concentrations resulting in 50% inhibition of the substrate cleavage compared to controls samples, and are expressed as IC50 (M).
Chain of Human recombinant PDE4 (Genbank accession no NM—006203) (Q08499 1-673 isoform Q08499-2): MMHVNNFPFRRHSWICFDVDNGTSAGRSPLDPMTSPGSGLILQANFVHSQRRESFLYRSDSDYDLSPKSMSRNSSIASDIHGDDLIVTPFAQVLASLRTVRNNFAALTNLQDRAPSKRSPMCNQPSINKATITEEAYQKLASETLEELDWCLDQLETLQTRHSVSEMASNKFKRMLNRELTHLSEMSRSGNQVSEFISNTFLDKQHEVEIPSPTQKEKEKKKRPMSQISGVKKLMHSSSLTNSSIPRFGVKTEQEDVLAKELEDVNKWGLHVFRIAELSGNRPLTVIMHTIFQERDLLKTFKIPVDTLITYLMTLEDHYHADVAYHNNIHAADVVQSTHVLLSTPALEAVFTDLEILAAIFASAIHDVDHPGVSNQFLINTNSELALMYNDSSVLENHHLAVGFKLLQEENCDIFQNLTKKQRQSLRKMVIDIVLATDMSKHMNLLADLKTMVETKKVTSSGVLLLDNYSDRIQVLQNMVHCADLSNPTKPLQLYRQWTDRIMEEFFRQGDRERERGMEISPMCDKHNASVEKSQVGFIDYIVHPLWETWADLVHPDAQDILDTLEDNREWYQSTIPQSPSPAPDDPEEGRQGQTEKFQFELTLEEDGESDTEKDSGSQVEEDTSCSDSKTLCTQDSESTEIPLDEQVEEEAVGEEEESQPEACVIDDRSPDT

Assay [2] deals with TNF-α release from human peripheral blood mononuclear cells (PBMC). As to the kind of experiment: TNF-α Release in LPS stimulated PBMC. Type of assay: cell-based. Conditions: 30 minutes pre-incubation, stimulated 18 hours with lipopolysaccharide, TNF-α in supernatant by enzyme immunoassay. The method, then:
Human peripheral blood mononuclear cells (PBMC) were isolated from buffy coats. The blood is mixed with saline at a ratio of 1:1, and the PBMC were isolated using Lymphoprep Tubes™ (Nycomed, Norway). The PBMC were suspended in RPMI1640 with 2% foetal calf serum (FCS), pen/strep and 2 mM L-glutamine at a concentration of […]. The cells were pre-incubated for 30 minutes with the test compounds in 96 well tissue culture plates and stimulated for 18 hours with lipopolysaccharide […] (Sigma). The level of TNF-α was measured in the culture supernatant by enzyme immunoassays using primary and secondary biotinylated antibodies from R&D systems. Results are expressed as IC50 values calculated from inhibition curves using as positive controls the secretion in LPS stimulated wells and as negative controls the secretion in unstimulated cells.

What is called IC50 is the concentration at which inhibition is half-maximal.

Consider `COc1ccc(C(=O)Cc2c(Cl)cncc2Cl)c2c1OCC1(CO2)CS(=O)(=O)C1` [Compound 124, 2-(3,5-Dichloropyridin-4-yl)-1-{9-methoxy-spiro[2H-1,5-benzodioxepin-3(4H),3′-thietane-1′,1′-dioxide]-6-yl}ethanone], for which the IC50 amounted to 104 nM in assay [1] and 135 nM in assay [2].
In the case of `COc1ccc(C(=O)Cc2c(Cl)cncc2Cl)c2c1OCC1(CO2)CSC1` [Compound 123, 2-(3,5-Dichloropyridin-4-yl)-1-{9-methoxy-spiro[2H-1,5-benzodioxepin-3(4H),3′-thietane]-6-yl}ethanone], the 50% inhibitory concentration (IC50) worked out at 17 nM in assay [1] and 35 nM in assay [2].
Turning to `COc1ccc(C(=O)Cc2cnccn2)c2c1OC1(CCSCC1)O2` [Compound 116, 2-(-pyrazin-2-yl)-1-(7-methoxy-2′,3′,5′,6′-tetrahydro-spiro[1,3-benzodioxole-2,4′-(4H)-thiopyran]-4-yl)ethanone], the figures for the half-inhibitory concentration (IC50) in assay [1] and in assay [2] were 1290 nM and 2940 nM, respectively.
The matching figures for `COc1ccc(C(=O)Cc2c(Cl)c[n+]([O-])cc2Cl)c2c1OCC1(CCOCC1)CO2` [Compound 128, 2-(3,5-Dichloro-1-oxido-pyridin-4-yl)-1-{9-methoxy-spiro[2H-1,5-benzodioxepin-3(4H),4′-tetrahydropyran]-6-yl}ethanone]: 11 nM and 9 nM.
